From patent US11633421B2, “Use of NAD precursors for improving maternal health and/or offspring health” (UNIVERSITY OF IOWA RESEARCH FOUNDATION, priority 2016, dated 2023)

Legend:
[1] = test system: NAD biosynthetic genes in the liver; assay: Hepatic NAD biosynthetic gene expression and NAD metabolites; assay type: in vivo; conditions: lactating mice with vs without NR
Excerpt: Lactation boosts NAD biosynthetic genes (FIG. 11A) and NAD levels (FIG. 11B) in the liver. […]. Lactation seems to depress levels of NR (FIG. 11C) and Nam (FIG. 11D) in the liver.

[2] = Milk production, oxytocin-induced milk collection (Example 1); assay type: in vivo, mice; conditions: collected volume per mother after oxytocin, days 0, 7, 14 and 21 after partum; NC+NR vs NC
Experimental: Female C57BL/6N mice were raised in 12 hour light:dark cycles on Teklad 2920X chow (NC). For 12 weeks prior to mating with a single C57BL/6N male, females were on either NC (n=4) or NC+NR (n=4). Females were maintained on the same diet through gestation and weaning, which was at 21 days after birth.
To determine the production of milk, we separated mothers were separated from pups for several hours and provided an injection of oxytocin on days 0, 7, 14 and 21 after partum. Milk was carefully collected by pipetting and the collected volume per mother was plotted. The galactogogue activity of NR was striking and entirely unexpected.

[3] = test system: brain derived neurotrophic factor (BDNF); assay: BDNF in milk; assay type: in vivo, mice; conditions: NR-supplemented mothers
Experimental: FIG. 10. NR supplemented mothers produce milk with higher brain-derived neurotrophic factor. Milk from NC and NR mothers was tested. […] Based on the advanced brain and neurobehavioral development that was observed, it was investigated whether NR-supplemented mothers produced more BDNF in their milk.

[4] = Post-partum NR supplementation: maternal body mass, food consumption, body composition; assay type: in vivo, mice; conditions: NR only after birth
Excerpt: FIGS. 6A-D. NR-supplemented mouse mothers lose weight during the 21 day lactation period without diminished food consumption (day 7-21). Delta body mass refers to day 21 post-partum maternal weight minus day 0 post-partum weight (FIG. 6A). Food consumption was day 7-21 (FIG. 6B). NR-supplemented mothers tend to lose fat (FIG. 6C) and maintain lean mass (FIG. 6D). Body composition refers to day 21 post-partum maternal fat and lean mass minus day 0 post-partum maternal fat and lean mass. A series of in vivo murine experiments were performed to evaluate whether maternally supplemented NR has the ability to improve maternal and neonatal health and development.

[5] = test system: PEPCK; assay: Pup liver gluconeogenic gene expression; assay type: in vivo, mice; conditions: males and females whose mothers were NR-supplemented
Excerpt: (§1) FIGS. 17A-C. 22 day old pups of NR-supplemented mothers have improved post-fasting glucose homoeostasis with higher gluconeogenic gene expression and higher hepatic glycogen storage. Not only are the offspring of NR-supplemented mothers a bit bigger, they also have better glycemic control. This is due to better gluconeogenic gene expression and higher glycogen storage. The order of the bars from left to right are: males of normal chow (NC) mothers (white with light grey outline), followed by males of NR-supplemented mothers (filled light grey), followed by females of NC mothers (white with dark grey outline), followed by females of NR-supplemented mothers (filled dark grey). Earlier it was shown that supplementation of females during their pregnancy and during the lactation period with NR produced pups with better glycemic control. […] Particularly as NR is not directly transmitted to offspring of NR-supplemented mothers, none of these effects of maternally supplemented NR could have been anticipated.

[6] = Transmission of heavy-atom labeled oral NR into milk; assay type: in vivo, mice; conditions: oral NR labeled with heavy atoms in nicotinamide and ribose moieties, gavage to lactating mothers
Experimental: FIGS. 9A-B. Orally administered NR is not directly transmitted via milk.
(§2) A series of in vivo murine experiments were performed to evaluate the effects of nicotinamide riboside on milk production. […] As shown in FIGS. 8A-C, the concentration of protein, carbohydrate and fat in the milk of NR-supplemented mothers was normal. Because there is approximately 2-fold more milk produced by NR-supplemented mothers, NR-supplemented mothers transmit more calories to their offspring, which thereby assists maternal weight loss and neonatal development. In FIG. 9A, the concentration of NAD precursor vitamins in the milk from control mothers and NR-supplemented mothers was determined. […] Oral NR was labeled with heavy atoms in the nicotinamide and ribose moieties of NR and this was provided to lactating mothers by gavage.

[7] = NAD precursor vitamins in milk; assay type: in vivo, mice
Experimental: as §2

[8] = Pup post-fasting glucose and hepatic glycogen (post-partum maternal NR); assay type: in vivo, mice
Excerpt: as §1

[9] = test system: UCP1; assay: UCP1 expression in mammary tissue; assay type: in vivo, mice; conditions: NR-supplemented vs NC mothers
Excerpt: (§3) FIGS. 14A-B. Postpartum NR supplementation promotes mammary gland development (n=5 mice per group) (FIG. 14A). NR increases heat loss by increasing expression of UCP1 (FIG. 14B). […] In addition, the size of the mammary tissue itself is greater in NR-supplemented mothers than in non-supplemented mothers (FIG. 14A).

[10] = Elevated plus maze test of offspring; assay type: in vivo, mice; conditions: 85 day old adult offspring; males reached statistical significance
Excerpt: Males are not afraid to “stick their head out”. The order of the bars from left to right are: males of normal chow (NC) mothers (white with light grey outline), followed by males of NR-supplemented mothers (filled light grey), followed by females of NC mothers (white with dark grey outline), followed by females of NR-supplemented mothers (filled dark grey). At 64 days past the mother's intervention, the willingness of 85 day old adult offspring of mice from this experiment (NC or NR-supplemented) to put their heads out in an elevated plus maze was tested. […] The clear indication is that maternal NR produces improvements in maternal behavior and/or qualitative and/or quantitative improvements in lactation sufficient to improve the development and health of offspring. The ability of the mother's 21 day micronutrition to produce beneficial effects on her offspring into adulthood was not at all anticipated.

[11] = test system: prolactin; assay: Prolactin levels in plasma from dam; assay type: in vivo, mice; conditions: plasma from dam on NC or NR chow
Excerpt: FIGS. 13A-D. NR boosts prolactin circulation and mammary biosynthetic pathways for protein, fat and carbohydrate. FIG. 13A. Prolactin levels in plasma from dam on NC or NR chow. FIG. 13B. mTOR pathway is activated in NR-supplemented mammary tissue. FIG. 13C. Genes involved in lipid biosynthesis are activated in NR-supplemented mammary tissue. FIG. 13D. Genes involved in lactose synthesis pathway are activated in NR-supplemented mammary tissue. […] In addition, the size of the mammary tissue itself is greater in NR-supplemented mothers than in non-supplemented mothers (FIG. 14A).

[12] = Mammary gland development (size of mammary tissue); assay type: in vivo, mice; conditions: NR-supplemented vs non-supplemented mothers
Excerpt: as §3

[13] = NR-supplemented vs non-supplemented mothers

## NC(=O)c1ccc[n+]([C@@H]2O[C@H](CO)[C@@H](O)[C@H]2O)c1 [NR, nicotinamide riboside]
[1]
  NAD biosynthetic genes and NAD levels in the liver: does not superinduce
  hepatic NAD biosynthetic gene expression: did not further increase
  levels of NR and Nam in the liver: depresses the accumulation of these metabolites in the liver even more
[2]
  increase in milk production: 2-3 x
[3]
  concentration of BDNF in the milk vs non-supplemented mothers: 2 fold
[4]; day 7-21
  maternal food consumption: as least as much as non-supplemented mothers
[4]; day 21 minus day 0 post-partum
  maternal body weight: lost significant weight
  maternal fat mass: lost significant weight, specifically in fat mass
  maternal lean mass: maintained their lean mass
[5]
  liver expression of the gluconeogenic bypass gene PEPCK: higher
[6]
  labeled species released into milk: only single labeled nicotinamide and no double-labeled NR
[7]; [13]
  NR concentration in milk: moderately higher
  nicotinamide (Nam) concentration in milk: moderately higher
[7]; concentration coupled with larger milk volume
  NAD precursor vitamins (total B3) transmitted: significantly more
[8]; 22 day old pups of NR-supplemented mothers
  post-fasting glucose homoeostasis of pups: improved
[8]; males and females whose mothers were NR-supplemented
  glycogen stored in liver: stored more glycogen
[9]
  expression of UCP1 in mammary tissue: increase in expression
[10]
  willingness to put heads out in an elevated plus maze: higher willingness
[11]
  circulating prolactin: very high levels
[12]
  size of the mammary tissue: greater
